Experimental data as given in PubChem BioAssay AID248 (DTP/NCI, 2004).
Values joined by “and” are separate entries in the source; they are usually repeats but may differ in a detail not shown here. Identical values can stand only once. Toxic doses and inconclusive results are not listed. Cut-off read from the data, not from the text of the source: active = T/C of 150% or more; inactive = T/C below 125%.

Tested on: L1210 leukemia ip in BDF1 mice, survival T/C
Assay: NCI In Vivo Anticancer Drug Screen. Data for tumor model L1210 Leukemia (intraperitoneal) in B6D2F1 (BDF1) mice
Details: endpoint: mean survival time, higher = longer survival
Method in brief: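 Mice bearing the transplanted tumor received compound or vehicle. Survival of the treated group was divided by that of the vehicle-treated control group to give the ratio.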

[1] = dose: 100.0 mg/kg/injection, schedule: Q01DX009 (ip), vehicle: Klucel (hydroxypropylcellulose) (HPC)
[2] = dose: 200.0 mg/kg/injection, schedule: Q01DX009 (ip), vehicle: Klucel (hydroxypropylcellulose) (HPC)
[3] = dose: 400.0 mg/kg/injection, schedule: Q01DX009 (ip), vehicle: Klucel (hydroxypropylcellulose) (HPC)
[4] = dose: 100.0 mg/kg/injection, schedule: Q04DX003 (ip), vehicle: Klucel (hydroxypropylcellulose) (HPC)
[5] = dose: 200.0 mg/kg/injection, schedule: Q04DX003 (ip), vehicle: Klucel (hydroxypropylcellulose) (HPC)
[6] = dose: 400.0 mg/kg/injection, schedule: Q04DX003 (ip), vehicle: Klucel (hydroxypropylcellulose) (HPC)
[7] = dose: 100.0 mg/kg/injection, schedule: Q04DX002 (ip), vehicle: saline with Tween-80
[8] = dose: 200.0 mg/kg/injection, schedule: Q04DX002 (ip), vehicle: saline with Tween-80
[9] = dose: 400.0 mg/kg/injection, schedule: Q04DX002 (ip), vehicle: saline with Tween-80
[10] = dose: 100.0 mg/kg/injection, schedule: Q01DX009 (ip), vehicle: saline
[11] = dose: 100.0 mg/kg/injection, schedule: Q04DX003 (ip), vehicle: saline
[12] = dose: 200.0 mg/kg/injection, schedule: Q01DX009 (ip), vehicle: saline
[13] = dose: 200.0 mg/kg/injection, schedule: Q04DX003 (ip), vehicle: saline
[14] = dose: 400.0 mg/kg/injection, schedule: Q04DX003 (ip), vehicle: saline
[15] = dose: 100.0 mg/kg/injection, schedule: Q01DX001 (ip), vehicle: saline
[16] = dose: 200.0 mg/kg/injection, schedule: Q01DX001 (ip), vehicle: saline
[17] = dose: 400.0 mg/kg/injection, schedule: Q01DX001 (ip), vehicle: saline
[18] = dose: 50.0 mg/kg/injection, schedule: Q01DX001 (ip), vehicle: saline
[19] = dose: 50.0 mg/kg/injection, schedule: Q01DX009 (ip), vehicle: saline with Tween-80

Measured: T/C

COc1ccccc1/C1=C/CCCCCC1
inactive: dose: 50.0 mg/kg/injection, schedule: Q01DX009 (ip), vehicle: acetone 90 % of control | dose: 100.0 mg/kg/injection, schedule: Q01DX009 (ip), vehicle: acetone 88 % of control | dose: 100.0 mg/kg/injection, schedule: Q04DX003 (ip), vehicle: acetone 100 % of control | dose: 200.0 mg/kg/injection, schedule: Q01DX009 (ip), vehicle: acetone 87 % of control | dose: 200.0 mg/kg/injection, schedule: Q04DX003 (ip), vehicle: acetone 92 % of control | dose: 400.0 mg/kg/injection, schedule: Q04DX003 (ip), vehicle: acetone 89 % of control

COc1ccc(C(=O)N/N=C/c2ccccc2Cl)cc1
inactive: [1] 106 % of control | [2] 97 % of control | [3] 102 % of control

C=CCn1c(/N=C\N(C)C)cc(=O)[nH]c1=O
inactive: [1] 103 % of control | [4] 97 % of control | [2] 107 % of control | [5] 97 % of control | [3] 100 % of control | [6] 89 % of control

C1=CC2(CCCC1)OCCO2
inactive: dose: 100.0 mg/kg/injection, schedule: Q04DX003 (ip), vehicle: saline with Tween-80 100 % of control | dose: 200.0 mg/kg/injection, schedule: Q04DX003 (ip), vehicle: saline with Tween-80 97 % of control | dose: 400.0 mg/kg/injection, schedule: Q04DX003 (ip), vehicle: saline with Tween-80 108 % of control

CCOC(C)=NC1=C(C#N)CP(c2ccccc2)CC1 (stereo unspecified)
inactive: [7] 103 % of control | [8] 95 % of control | [9] 92 % of control

COc1ccc(C)cc1NC(=O)c1cccc(F)c1
inactive: [1] 106 % of control | [2] 101 % of control | [3] 97 % of control

C1CCN(NC2=NCCO2)CC1
inactive: [10] 95 % of control

CC(C)(C=O)CO
inactive: [7] 94 % of control | [8] 97 % of control | [9] 91 % of control

CC(=O)N(C(C)=O)c1ccc(C)cc1
inactive: [10] 109 % of control | [11] 95 % of control | [12] 112 % of control | [13] 108 % of control | [14] 103 % of control

COc1ccc2c(n1)Sc1c(Cl)nc(N)nc1N2
inactive: dose: 100.0 mg/kg/injection, schedule: Q01DX001 (ip), vehicle: Klucel (hydroxypropylcellulose) (HPC) 97 % of control | dose: 200.0 mg/kg/injection, schedule: Q01DX001 (ip), vehicle: Klucel (hydroxypropylcellulose) (HPC) 97 % of control | dose: 400.0 mg/kg/injection, schedule: Q01DX001 (ip), vehicle: Klucel (hydroxypropylcellulose) (HPC) 98 % of control

COC(=O)C(=NO)C(=O)OC
inactive: [10] 98 % of control | [11] 93 % of control | [12] 106 % of control | [13] 95 % of control | dose: 400.0 mg/kg/injection, schedule: Q01DX009 (ip), vehicle: saline 106 % of control | [14] 96 % of control

Cc1ccc(C)c(NC(=O)Oc2cc(C)c(Cl)cc2C(C)C)c1
inactive: [1] 92 % of control and 102 % of control | [4] 103 % of control | [2] 100 % of control and 87 % of control | [5] 115 % of control | [3] 102 % of control and 90 % of control | [6] 97 % of control

O=[N+]([O-])c1ccc2c(c1)C(C(Cl)(Cl)Cl)OC(C(Cl)(Cl)Cl)O2 (stereo unspecified)
inactive: [1] 95 % of control | [4] 96 % of control | [2] 95 % of control | [5] 93 % of control | [3] 95 % of control | [6] 95 % of control

CC(=O)Nc1ccc(SC2(Sc3ccc(NC(C)=O)cc3)c3ccccc3-c3ccccc32)cc1
inactive: [15] 92 % of control | [16] 98 % of control | [17] 100 % of control

COc1ccccc1/C(=C/c1ccc([N+](=O)[O-])cc1)C(=O)Nc1ccc(S(=O)(=O)F)cc1
inactive: [1] 103 % of control | [2] 92 % of control | [3] 100 % of control

c1ccc(CC2NC2c2ccccc2)cc1 (stereo unspecified)
inactive: dose: 100.0 mg/kg/injection, schedule: Q04DX002 (ip), vehicle: Klucel (hydroxypropylcellulose) (HPC) 92 % of control | [4] 96 % of control | dose: 200.0 mg/kg/injection, schedule: Q04DX002 (ip), vehicle: Klucel (hydroxypropylcellulose) (HPC) 98 % of control | [5] 96 % of control | [6] 103 % of control

CCOC(=O)c1[nH]c2c(OCC)nc(OCC)nc2c1Br
inactive: [18] 106 % of control | [15] 112 % of control | [16] 104 % of control | [17] 95 % of control

CCCCCCCCCCCCCCCCCCNC1=C(Cl)C(=O)C(NCCCCCCCCCCCCCCCCCC)=C(Cl)C1=O
inactive: dose: 50.0 mg/kg/injection, schedule: Q01DX001 (ip), vehicle: carboxymethylcellulose (CMC) 100 % of control

CC(O)CN1CCOCC1 (stereo unspecified)
inactive: [11] 100 % of control | [13] 97 % of control | [14] 107 % of control

CCOC(=O)CNC(=O)Oc1c(Cl)cccc1Cl
inactive: dose: 25.0 mg/kg/injection, schedule: Q01DX009 (ip), vehicle: Klucel (hydroxypropylcellulose) (HPC) 100 % of control | dose: 50.0 mg/kg/injection, schedule: Q01DX009 (ip), vehicle: Klucel (hydroxypropylcellulose) (HPC) 88 % of control | [1] 89 % of control

CC(=O)Nc1ccc(/C=N/NC(=O)CNC(=O)Nc2cccc(Cl)c2Cl)cc1
inactive: [19] 121 % of control | dose: 100.0 mg/kg/injection, schedule: Q01DX009 (ip), vehicle: saline with Tween-80 90 % of control | dose: 200.0 mg/kg/injection, schedule: Q01DX009 (ip), vehicle: saline with Tween-80 88 % of control

C[n+]1cccc(C(=O)NCCc2c[nH]c3ccccc23)c1
inactive: dose: 75.0 mg/kg/injection, schedule: Q01DX001 (ip), vehicle: saline 96 % of control | dose: 150.0 mg/kg/injection, schedule: Q01DX001 (ip), vehicle: saline 104 % of control

CNC(=O)NNC(=O)CNC(=O)Nc1cccc([N+](=O)[O-])c1
inactive: dose: 25.0 mg/kg/injection, schedule: Q01DX009 (ip), vehicle: saline with Tween-80 91 % of control | [19] 94 % of control

O=[N+]([O-])c1ccc(C=Nc2ccc([N+](=O)[O-])cc2)cc1
inactive: [11] 90 % of control | [13] 86 % of control | [14] 93 % of control

CCC(=O)OC1(c2ccccc2)CCN(C)CC1C (stereo unspecified)
inactive: dose: 5.0 mg/kg/injection, schedule: Q01DX001 (ip), vehicle: saline 105 % of control | dose: 10.0 mg/kg/injection, schedule: Q01DX001 (ip), vehicle: saline 105 % of control | dose: 20.0 mg/kg/injection, schedule: Q01DX001 (ip), vehicle: saline 102 % of control | dose: 40.0 mg/kg/injection, schedule: Q01DX001 (ip), vehicle: saline 103 % of control | dose: 80.0 mg/kg/injection, schedule: Q01DX001 (ip), vehicle: saline 102 % of control

CCCCCCCCCCCCCCOS(=O)(=O)c1ccc(C)cc1
inactive: [18] 102 % of control | [15] 102 % of control | [16] 96 % of control | [17] 100 % of control

CCC(C)c1cccc2c(C(CC)CC)cccc12 (stereo unspecified)
inactive: [15] 104 % of control | [16] 106 % of control | [17] 112 % of control

COc1ccc(C=NC2C(O)OC(CO)C(O)C2O)cc1 (stereo unspecified)
inactive: [15] 106 % of control | [16] 87 % of control | [17] 93 % of control
